The record followed here is patent US20190125735A1, “INHIBITION OF P38 MAPK FOR THE TREATMENT OF CANCER” (Board of Regents, The University of Texas System, priority 2015, published 2019).

In one assay the test system is HMLE cells. Kind of assay: FOXC2 immunostaining at leading edge of scratched HMLE monolayer. It is filed as cell-based, human. The note with it: 9 h post-wound. The procedure: FIGS. 13A-13F: FOXC2 expression correlates with p38 activation in cells with mesenchymal and stem cell properties. […] (B) Cell lysates from the indicated cells were analyzed by immunoblotting for p-p38, p38 and FOXC2. β-actin was used as a loading control. […] Cell lysates were analyzed by immunoblotting for FOXC2. β-actin was used as a loading control (D) The indicated cells were transduced with p38 shRNA (shp38) or control shRNA (shControl). Cell lysates were analyzed by immunoblotting for p38 and FOXC2. β-actin was used as a loading control. […] (F) For the wound healing assay, a confluent monolayer culture of epithelial HMLE cells was scratched with a sterile pipette tip. […] Nuclei were counterstained with DAPI. Scale bar, 20 μm.

The test system of assay [1] is HMLE-Snail-ER and HMLE-Twist-ER cells. Kind of assay: Sphere formation of 4-OHT-treated HMLE-Snail-ER and HMLE-Twist-ER cells. It is filed as cell-based, human. The note with it: 4-OHT-treated cells, SB203580 exposure. Here is the method: FIGS. 15A-15L: p38 inhibition compromises the acquisition and maintenance of EMT and stem cell properties in vitro. […] Cells were harvested and the corresponding lysates were analyzed by immunoblotting for FOXC2, E-cadherin and mesenchymal markers. β-actin was used as a loading control. […] Cells were harvested at the indicated timepoints and the corresponding lysates were analyzed by immunoblotting for FOXC2, E-cadherin and mesenchymal markers. β-actin was used as a loading control. […] One thousand cells were seeded per well in ultra-low attachment plates and cultured for 7-10 days. Spheres with a diameter greater than 75 μm were counted. The data are reported as the number of spheres formed/1000 seeded cells±SEM. […] Data are presented as mean±SEM. […] The corresponding lysates were analyzed by immunoblotting for FOXC2, E-cadherin and mesenchymal markers. β-actin was used as a loading control. (F) The sphere-forming efficiency of 4-OHT-treated HMLE-Twist-ER cells, transduced with control shRNA (shControl) or p38 shRNA (shp38), was determined. […] (H) The sphere-forming efficiency of the indicated cells was determined in the presence of vehicle or SB203580. […] (J) The relative wound closure by the indicated cells, treated with vehicle or SB203580, was measured by image analysis and represented in a graphical format. […] Degradation of FITC-gelatin was quantified by image analysis. n=150 cells/sample. […]

A further assay deals with Foxc2. Briefly: Foxc2/FOXC2 protein immunoblotting in 4T1 cells. It counts as cell-based, mouse. A general note: In western blotting, separated proteins are transferred to a membrane and probed.
In the next assay the test system is DU145 cells. Briefly: MTS cell survival assay, DU145 cells. It is filed as cell-based, human. The procedure: Immunoblotting, Immunofluorescence, RTPCR, wound healing- and tumorsphere assays were performed as previously described (Sarkar et al., 2015). Cell viability (MTS) was assessed using the CellTiter96 Aqueous One-Solution Cell Proliferation Assay kit (Promega).
Background: Tetrazolium assays rely on reduction of a dye to a coloured formazan, in cell work by metabolically active cells.

Consider `C[S+]([O-])c1ccc(-c2nc(-c3ccc(F)cc3)c(-c3ccncc3)[nH]2)cc1` (stereo not shown) [SB203580, 4-(4-Fluorophenyl)-2-(4-methylsulfinylphenyl)-5-(4-pyridyl) 1H-imidazole], for which, in the assay on HMLE cells, the “Upregulation of FOXC2 at the leading edge of scratch” value is “abrogated the upregulation of FOXC2 at the leading edge”. For the same compound, in assay [1], the Sphere-forming potential result is listed as “failed to acquire sphere-forming potential”. For the same compound, in the assay on Foxc2 (4T1-FOXC2(S367E) cells), the “Phosphomimetic FOXC2(S367E) levels” value is listed as “remained unaltered”. Further, the “Endogenous Foxc2 protein levels” value in the assay with Foxc2 (4T1 cells, 24 h) is recorded as “significant reduction of endogenous Foxc2 protein levels”; in the assay on Foxc2 (vector-transduced 4T1 cells), “abolished endogenous Foxc2 protein levels”. The “Sensitivity of cells to Docetaxel (cell survival)” value in the assay on DU145 cells (DU145, SB203580 pre-treatment then co-treatment with SB203580 and Docetaxel) is “significantly resensitized”. Moreover, the “Sensitivity of cells to Enzalutamide (cell survival)” value with DU145 cells (DU145, SB203580 pre-treatment then co-treatment with SB203580 and Enzalutamide) is reported as “significantly resensitized”.
